Values joined by “and” are separate entries in the source; they are usually repeats but may differ in a detail not shown here. Equal values may be shown once. Read-outs that look alike come from different tables or passages of the source.
Assays:
[1] = CCK-8 cell viability of THP-1 cells after 48 h compound treatment in HaCaT/THP-1 co-culture; assay type: cell-based, human; conditions: human; for IC50 at 48 h: THP-1 cells, 48 h treatment, CCK-8, range 1,000 to 3.9 μg/mL, read-out: IC50 (cytotoxicity)
Experimental: (§1) The co-culture system was set up according to the following described method. […] THP-1 cells were collected, centrifuged, and re-suspended in fresh RPMI-1640 medium supplemented with 10% FBS at 2 × 10^6 cells/mL. Then cells are distributed into HaCaT-seeded 96 wells plate with 80 μL (1.6 × 10^5 cells/well).
(§2) The compounds listed in Table 1 were dissolved in DMSO to create stock solutions with a concentration of 500 mg/mL. Eleven concentrations were subsequently prepared using two-fold serial dilutions. These stock solutions were then further diluted 250-fold in RPMI-1640 + 10% FBS medium. Finally, 80 μL of the prepared solutions were added 1:1 to the treated 96-well plates and incubated for 48 h at 37 °C and 5% CO2.
(§3) After 48 h of treatment, the treated cells were collected 100 μL cells per well. The supernatant medium was added 10 μL of CCK-8 (Life-iLab, Shanghai, China) solution to each well and incubated the plate in the incubator for 2–4 h. THP-1 cell viability was determined using standard calculation methods.
(§4) The cytotoxicity of 15 test compounds listed in Table 1 was assessed using THP-1 cells across a concentration range of 1,000 to 3.9 μg/mL. Cell viability was assessed after 48 h of treatment using the CCK-8 assay.

[2] = test system: THP-1 cells; test: as above; assay type: cell-based, human; conditions: 48 h; for final concentration used (highest concentration that maintained at least 80% cell viability): THP-1 cells, CCK-8, single (not double) concentration
Experimental: as §1, §2, §3, §4

[3] = THP-1 cells in co-culture with HaCaT cells, 48 h, THP-1, individual replicate values
[4] = THP-1 cells in co-culture with HaCaT cells, 31.25 μg/mL, 48 h, THP-1, individual replicate values, read-out: Cell viability
[5] = 0.976563 μg/mL, THP-1, individual replicate values
[6] = 1.95312 μg/mL, THP-1, individual replicate values
[7] = 3.90625 μg/mL, THP-1, individual replicate values
[8] = 7.8125 μg/mL, THP-1, individual replicate values
[9] = 15.625 μg/mL, THP-1, individual replicate values
[10] = 31.25 μg/mL, THP-1, individual replicate values
[11] = 62.5 μg/mL, THP-1, individual replicate values
[12] = 125 μg/mL, THP-1, individual replicate values
[13] = 250 μg/mL, THP-1, individual replicate values
[14] = 500 μg/mL, THP-1, individual replicate values
[15] = 1000 μg/mL, THP-1, individual replicate values
[16] = THP-1 cells in co-culture with HaCaT cells

| Compound | viability at 48 h, 0.976563 μg/mL [1, 3] [%] | viability at 48 h, 1.95312 μg/mL [1, 3] [%] | viability at 48 h, 3.90625 μg/mL [1, 3] [%] | viability at 48 h, 7.8125 μg/mL [1, 3] [%] | viability at 48 h, 31.25 μg/mL [1, 4] [%] | viability at 48 h, 62.5 μg/mL [1, 3] [%] | viability at 48 h, 125 μg/mL [1, 3] [%] | viability at 48 h, 250 μg/mL [1, 3] [%] | viability at 48 h, 500 μg/mL [1, 3] [%] | viability at 48 h, 1000 μg/mL [1, 3] [%] | Cell viability [2, 5] [%] | Cell viability [2, 6] [%] | Cell viability [2, 7] [%] | Cell viability [2, 8] [%] | Cell viability [2, 9] | Cell viability [2, 10] [%] | Cell viability [2, 12] [%] | Cell viability [2, 14] [%] | Cell viability [2, 15] [%] | viability at 48 h, 15.625 μg/mL [1, 3] [%] | also measured |
| --- | --- | --- | --- | --- | --- | --- | --- | --- | --- | --- | --- | --- | --- | --- | --- | --- | --- | --- | --- | --- | --- |
| O=c1c(-c2ccccc2)c1-c1ccccc1 [diphenylcyclopropenone, Diphenylcyclopropenone] | 95.4 | 124 | 36.8 | 21.2 | 25.4 | 26.6 | 28.2 | 29.3 | 30.3 | 30.7 | 95.9291 | 135.468 | 42.1135 | 16.9362 | 18.4255% and 40.305% | 15.5674 | 23.4184 | 31.4681 | 33.1277 |  | Cell viability [2, 11]: 19.5248%; Cell viability [2, 13]: 23.9858%; final concentration used (highest concentration that maintained at least 80% cell viability) [2]: 0.98 µg/mL |
| N#CCCC(Br)(C#N)CBr (stereo not shown) [bromoml, 1,2-dibromo-2,4-dicyanobutane] | 97 | 97.1 | 100 | 53.3 |  | 12.2 | 12.2 | 11.9 | 12.9 | 12.4 | 102.88 | 103.993 | 108.767 | 57.1729 | 14.391% |  | 12.0752 | 12.3985 | 12.3609 | 13.3 | viability at 48 h, 31.25 μg/mL ([1]; Cell viability): 12%; Cell viability [2, 11]: 11.8195%; final concentration used (highest concentration that maintained at least 80% cell viability) [2]: 3.9 µg/mL; Cell viability ([2]; human, 31.25 μg/mL): 11.782% |
| OCC(O)CO [glycerol, Glycerol] | 87.7 | 93.5 | 79.1 |  |  | 110 | 90.6 | 93.5 | 93.4 | 98.4 |  |  |  |  |  |  |  |  |  | 93.7 | viability at 48 h, 31.25 μg/mL ([1]; Cell viability): 105%; IC50 at 48 h [1, 16]: > 1000 µg/mL; Cell viability ([2]; human, 31.25 μg/mL): 116.476% |
| CC(C)CCCC(C)CCCC(C)CCCCC(C)CCCC(C)CCCC(C)C (stereo not shown) [squalane, Squalane] |  |  | 85.4 | 85 | 89.3 | 87.1 | 98 | 83.7 | 82 | 91.2 | 122.038 | 117.419 | 88.2476 | 84.8 | 88.8667% | 81.4095 | 94.8381 | 84.4381 | 95.019 | 78.7 | IC50 at 48 h [1, 16]: > 1000 µg/mL; Cell viability [2, 13]: 87.1048% |

From PMC11648681, “Development of machine learning models for the prediction of the skin sensitization potential of cosmetic compounds” (PeerJ, 2024)
